Test [1] relates to UUO kidney. The test is described as follows: Dynamic MRI measurement of the enhancement in the kidney, UUO mice (Example 3). Type of test: in vivo. The conditions noted are these: DOTAREM 10 mM, Example 1 nanoparticles 5 mM. How it is done:
The images were acquired with a 7T 300 MHz spectrometer imager, equipped with a linear 1H radiofrequency coil dedicated to mice (Bruker, Karlsruhe, Germany).
The dynamic MRI studies of capture and release of the nanoparticles in the tissues were carried out in vivo and made it possible to determine the change in enhancement in the kidney.
All the manipulations of the animals were carried out in compliance with the institutional animal protocol guidelines in place at Paris Descartes University, submission CEEA34.JS.142.1 and approved by the Institute's animal research committee, and also the ethics protocols of the company regarding mouse inductions. […]
8-week-old female mice of BalbC/JRJ type (n=6) were UUO-treated at just one kidney, i.e. each mouse comprises one lesioned kidney (UUO kidney) and one healthy kidney (reference kidney). […] The physiological respiratory parameters were measured throughout the MRI studies using a nonmagnetic respiratory sensor system (the company SAM, US) and the body temperature was maintained by heating the cradle to the core. […]
A dynamic contrast enhanced DCE sequence was recorded using a specific sequence eliminating the free artefacts of movement in post treatment with a TR of 100 ms and a TE of 4 ms and a tilt angle of 80° in order to ensure T1 MRI weighting; a field of view (FOV) of 3 cm×3 cm and a final matrix of 256 by 256 points. […]

Test [2] concerns glomerular and tubular renal disorder model induced by injection of anti-gbm antibodies. The test is described as follows: Arterial input function (AIF) by DCE MRI in anti-gbm glomerular and tubular renal disorder model with therapy (Example 6). The conditions noted are these: d7 and d14 post-induction, AGuIX 5 mM, DOTAREM 10 mM, 100 μl bolus. It counts as in vivo, male CBA mice. The protocol:
The high temporal resolution DCE perfusion method with a period 2.5 s for 10 min, with injection of the imaging agent as a 100 μl bolus at […] (method described in Example 4) was applied on another model of glomerular and tubular renal disorder, i.e. model induced by injection of anti-gbm antibodies in the literature.
The DCE MRI acquisition protocol consists in injecting the two types of agents: reference DOTAREM or AGuIX, namely:
solution according to the invention: 100 μl of imaging agent dissolved in a 0.9% saline solution, with a 5 mM concentration of AguIX imaging agent, and
solution according to the prior art: 100 μl of imaging agent dissolved in a 0.9% saline solution, with a 10 mM concentration of DOTAREM imaging agent. […]
An additional parameter corresponding to the arrival of the imaging tracer in the organ, i.e. arterial input function AIF, was also recorded. Measured at the input of the organ studied, the AIF itself at the input of the kidney is an indicator of the functionality. The profile is recorded on the anatomical MRI image at the level of the renal arterial point on the dynamic images acquired at DCE high temporal resolution proposed. […]

Test [3] has as its system UUO kidney. The test is described as follows: High temporal resolution DCE perfusion MRI, UUO model (Example 4). Type of test: in vivo, female BalbC/JRJ mice. The following applies: DOTAREM 10 mM.
Protocol: It provides kinetic profiles of signal enhancement corresponding to the immediate arrival of the imaging agent in the tissue, in particular for probing the first glomerular pass.
The UUO model is induced by clamping the right ureter of female BalbC/JRJ mice according to a biochemically characterized protocol from the literature. All the manipulations of the animals were carried out in compliance with the institutional animal protocol guidelines described in Example 3.
8-week-old female mice of BalbC/JRJ type (n=6) were UUO-treated at the level of just one kidney, i.e. each mouse comprises one lesioned kidney (UUO kidney) and one healthy kidney (reference kidney). A batch of sham mice makes it possible to verify the validity of the contralateral reference with the MRI method developed. 2 batches of n=6 mice and n=6 shams were studied by dynamic MRI 3 days after induction.
The DCE MRI acquisition protocol consists in injecting the two types of imaging agents: reference DOTAREM and AGuIX, namely:
Solution according to the invention: 100 μl of imaging agent dissolved in a 0.9% saline solution, with a 5 mM concentration of AGuIX imaging agent.
Prior art solution: 100 μl of imaging agent dissolved in a 0.9% saline solution with 10 mM concentration of DOTAREM imaging agent. • i) The administration protocol is that of Example 3. • ii) The MRI acquisition protocol itself consists in recording sequential images by means of the T1-weighted FLASH MRI sequence (TR=TE=2.2 ms, spatial resolution 117×310 μm^2), temporal resolution 2.5 s for 10 min with 20 s of precontrast. […] T1 mapping in order to verify the concentration of Gd MRI agent is recorded. • iii) The digital processing method derived from method termed 3TP, three time Points, consists in defining 3 main points: basic reference intensity, point of maximum intensity of enhancement, final clearance time, and calculating the slopes of capture and of release of the agent. Next, a Mann-Whitney biostatistical study is applied to the slope parameters calculated for each of the 6 mice, and for each imaging agent.
Averaged collective method resulting in the value of T1max: • a) Searching for the time T corresponding to the maximum in the overall mean of the DCE MRI intensities. • b) Applying this max to each enhancement profile as Tmax. • c) Taking the mean of 6 enhancement values around the indexed value.

Entries after “also recorded” stand apart in the source; their conditions may differ.

In the case of `CNC[C@H](O)[C@@H](O)[C@H](O)[C@H](O)CO.O=C([O-])CN1CCN(CC(=O)[O-])CCN(CC(=O)O)CCN(CC(=O)[O-])CC1.[Gd+3]` [DOTAREM], in test [1] (intravenous, 100 μl, UUO mice), the “discrimination between healthy kidney and lesioned (UUO) kidney by MRI enhancement” value was “cannot discriminate between a healthy kidney and a lesioned kidney; also recorded: does not make it possible to significantly differentiate renal functionality of a healthy kidney and of an obstructed kidney; also recorded: does not make it possible to distinguish a healthy kidney from a kidney suffering from a renal disorder”. The “enhancement profile in the renal cortex, UUO kidney vs reference kidney” value in test [1] (time course by MRI after intravenous administration) is “enhancement profile is similar between UUO kidney (lesioned kidney) and reference kidney (healthy kidney)”. Also, in test [2], the “AIF at the kidney input, control (carrier) mice vs MP mice” value is “identical”. In test [3] (UUO model, AGuIX 5 mM), the “decrease of DCE MRI signal between healthy and pathological kidney condition” value was found to be 100%; the “decrease of DCE MRI signal between healthy and pathological kidney condition, as factor” value is 2. Further, the “discrimination between healthy kidney and lesioned kidney (high time resolution DCE MRI)” value in test [3] (intravenous, Example 1 nanoparticles 5 mM) is “cannot discriminate between a healthy kidney and a lesioned kidney”. Further, in test [3] (intravenous, Example 1 nanoparticles 5 mM, 3 days after induction), the “enhancement profile in the renal cortex, UUO kidney vs reference kidney (high time resolution DCE MRI, Mann-Whitney improved 3TP)” value is “enhancement profile is similar between UUO kidney (lesioned kidney) and reference kidney (healthy kidney)”.

For the origin of these results see patent US20190022257A1, “ULTRAFINE NANOPARTICLES AS AN IMAGING AGENT FOR DIAGNOSING A RENAL DISORDER” (priority 2016, published 2019).
